The values below are quoted from earlier work in patent US20050203062A1, “Use of tagatose in laxatives” (Spherix Incorporated, priority 2002, published 2005).

One data set deals with Type 2 diabetes. The note with it: clinical trials.
For data set [1] the following is noted: amounts approaching 30 or 40 grams per day.

Consider `O=C(CO)[C@@H](O)[C@@H](O)[C@H](O)CO` [tagatose, D-tagatose], for which, in the data set on Type 2 diabetes, the “treatment of Type 2 diabetes” value is given as “effective treatment for Type 2 diabetes”. Also, the laxation effect result in data set [1] was “known to have a Taxation effect”. In the data set on blood glucose (after tagatose itself), the “rise in blood glucose” value is listed as “does not produce a rise in blood glucose”. The “rise in blood glucose from subsequent intake of glucose-producing foods” value in the data set with blood glucose (subsequent intake of glucose-producing foods) is “blunts the rise in blood glucose”.
